Assay results as given in publication PMC12196476, “New Nitrogen-, Oxygen-, and Sulfur-Containing Heterocyclic Compounds as Anti-Colon Cancer Agents: Synthesis, Multitargeted Evaluations, Molecular Docking Simulations and ADMET Predictions” (Pharmaceuticals, 2025).

Experiments:
[1] = biological target: recombinant human LDHA protein (Homo sapiens, UniProt P00338); experiment: In vitro LDHA inhibitory assay (NADH consumption); type: biochemical
[2] = tested on: LoVo colon carcinoma cells; experiment: Cell viability, LDH release assay, LoVo; details: Homo sapiens, LoVo, 48 h
[3] = tested on: Bax, Bcl-2 and Casp-3 genes expression in HCT-116 cells; experiment: qRT-PCR of Bax, Bcl-2 and Casp-3 gene expression, HCT-116; type: cell-based, human; details: 30 µg/mL, 48 h
Method: To investigate molecular events downstream of ROS generation, we evaluated mRNA expression levels of key regulators of mitochondrial apoptosis—Bax and Bcl-2—using qRT-PCR. […] As a result, the Bax/Bcl-2 ratios were calculated to be 12.63 in LoVo cells and 8.71 in HCT-116 cells, reflecting a pronounced pro-apoptotic shift. This alteration in the Bax/Bcl-2 ratio strongly supports the activation of the mitochondrial apoptotic pathway.
To confirm activation of the execution phase of apoptosis, Casp-3 mRNA levels were evaluated by qRT-PCR.
The expression levels of these genes were determined using a quantitative real-time PCR technique. […]
S3.2.9. Quantification of the Expression Levels of Bax, Bcl-2 and Caspase-3 Genes
Human colon cancer cell lines (HCT-116 and LoVo) were cultured for 24 h in a 25 mL flask at
a density of 1 * 10^6 cells/flask as described in section S3.2.4. Cells were treated with 30 µg/mL
of compound 3d in 2 mL of fresh medium containing 1% FBS, or with 0.25 % DMSO as a
negative control, for 48 h. Afterwards, cells were washed with ice-cold phosphate-buffered
saline (PBS) and adherent cells were detached using trypsin solution.
Table S7 lists primers amplifying 100-200 bp of Bax, Bcl-2 and Caspase-3 genes. These primers
were designed using primer blast software (https://www.ncbi.nlm.nih.gov/tools/primer-
Table S7. Primer sequences for Bax, Bcl-2, Caspase-3, and GAPDH (control)
Gene Primer sequence (5’ to 3’)
Bcl-2 F 5’-[…] -3’,
Caspase 3 F 5’- […]-3’,
GAPDH F 5’- […]-3’
• Reverse-Transcription PCR (RT-PCR)
The total RNA was extracted from untreated and treated cells using the RNeasy Mini Kit
(Qiagen, DE). A Nanodrop 8000 spectrophotometer (Thermo Fisher Scientific, USA) was
used to check the RNA purity and quality. The Hyperscript Kit (GeneAll, KR) and random
hexamers (GeneAll, KR) were used as described in the manufacturer’s protocol to reverse-
transcript 1µg of RNA from each sample into cDNA.
• Quantitative real-time PCR
The mRNA expression of Bax, Bcl-2, and Caspase-3 were measured using QuantStudio
7Flex Detection System (Applied Biosystems, USA). The iScript One-Step RT-PCR Kit with
SYBR Green (Cat no: 170-8892; Bio-Rad, CA, USA) was used to carry out the reactions for
the synthesis of cDNA. Each cDNA sample (5 µl) was added in a 20 µL PCR mixture

[4] = tested on: HCT-116 cells; experiment: Annexin V-FITC/PI apoptosis assay, HCT-116; type: cell-based, human; details: 30 µg/mL, 48 h
Method: Translocation of phosphatidylserine (PS) residues on the cell surface is an early apoptosis indicator, detectable through flow cytometric analysis and using double staining with propidium iodide (PI) dye and fluorescein isothiocyanate (FITC)-conjugated Annexin V (Annexin V-FITC). […]
μg/mL for 48 h. […]
S3.2.6. Annexin-V-FITC assay. […]
treatment with compound 3d. HCT-116 and LoVo cells were treated with vehicle (DMSO) and 3d […]
in Annexin-V binding buffer (BioVision Research Products, USA). The cells were then stained with Annexin V-FITC and propidium iodide (PI). Using the FITC signal detector (usually FL1) for […]
of stained cancerous cells were determined. […]

[5] = relative to untreated controls, normalized to GAPDH

## COc1cc(/C=N/c2ncnc3sc4c(c23)CCCC4)cc(OC)c1OC [Compound 3d, (E)-N-(5,6,7,8-Tetrahydrobenzo[4,5]thieno[2,3-d]pyrimidin-4-yl)-1-(3,4,5-trimethoxyphenyl)methanimine]
[1]; 100 µg/mL, three replicates, read-out: Mean Inhibition Percent ± SD, LDHA
  inhibition at 100 µg/mL: 85.9 ± 2.97%
[1]; three independent experiments, read-out: Mean IC50 µM ± SD, LDHA
  IC50: 149 ± 7.93 µM
[2]; read-out: Mean % of viable cells ± SD, LoVo, 100 µg/mL, 48 h, LDH release assay
  viability at 100 µg/mL: < 29%
[2]; read-out: Mean IC50 Values in µM ± SD, LoVo cells
  IC50: 157 µM
[3]
  Bax/Bcl-2 ratio, HCT-116 cells: 8.71
[3]; [5]
  Bax mRNA expression, fold of control (HCT-116): 3.57 ± 0.18 fold
  Bcl-2 mRNA expression, fold of control (HCT-116): 0.41 ± 0.04 fold
  Casp-3 mRNA expression, fold of control (HCT-116): 4.50 ± 0.40 fold
[4]; Figure 3D plot
  Necrotic population (Annexin-V−/PI+), HCT-116: 1.53%
[4]; Figure 3D plot, control 0.15%
  Late apoptotic cells (both Annexin-V and PI positive), HCT-116: 3.63%
[4]; Figure 3D plot, control 0.46%
  Early apoptotic cells (Annexin V-FITC positive and PI negative), HCT-116: 19.02%
[4]; mean of two independent experiments (Figure 3E)
  % of cell population, Mean necrosis (HCT-116): 1.63%
[4]; mean of two independent experiments (Figure 3E), text calls it total apoptosis
  % of cell population, Mean total death (HCT-116): 25.11%
